Columns and labels:
[1] = target: T1, PPARG/RXRA LBD heterodimer (Homo sapiens, UniProt P37231); experiment: PPARγ-MED1 blockade assay (TR-FRET, biotinylated MED1 LxxLL peptide); type: biochemical; conditions: WT PPARG LBD/WT RXRA LBD, 80 nM Rosiglitazone, 3 hours
T1 construct: His-TEV-Q203-Y477; Uniprot ID P37231-2; made in house; host or cells: E. coli
T1 sequence (P37231 203-477 isoform P37231-2): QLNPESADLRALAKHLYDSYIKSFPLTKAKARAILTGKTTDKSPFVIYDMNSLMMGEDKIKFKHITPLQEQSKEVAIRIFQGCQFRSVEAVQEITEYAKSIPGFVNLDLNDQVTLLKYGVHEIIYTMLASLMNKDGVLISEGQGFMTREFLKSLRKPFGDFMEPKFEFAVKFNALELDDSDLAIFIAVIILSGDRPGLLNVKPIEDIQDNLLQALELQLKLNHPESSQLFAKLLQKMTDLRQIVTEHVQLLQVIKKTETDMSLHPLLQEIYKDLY
T1 sequence (P19793 228-462 partner limits assumed): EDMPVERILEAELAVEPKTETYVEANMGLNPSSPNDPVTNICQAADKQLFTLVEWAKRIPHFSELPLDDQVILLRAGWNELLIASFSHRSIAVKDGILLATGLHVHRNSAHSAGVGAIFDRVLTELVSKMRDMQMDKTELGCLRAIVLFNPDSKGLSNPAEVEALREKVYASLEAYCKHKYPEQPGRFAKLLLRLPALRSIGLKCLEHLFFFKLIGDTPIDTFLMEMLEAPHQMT
Protocol: PPARγ-MED1 Blockade Assay:
Compound potency (IC50) and maximal extent of MED1 repulsion to PPARG were assessed a TR-FRET binding assay measuring association of a biotinylated MED1 LxxLL peptide (Biotin-[…]-amide) to PPARG/RXRA LBD heterodimer. Specifically, a 20 microliters of TR-FRET master mix consisting of 2 nM WT PPARG LBD (E. coli expressed, His-TEV-Q203-Y477; Uniprot ID P37231-2), 2 nM WT RXRA LBD (E. coli expressed, Flag-TEV-E228-T462; […]. Mixtures were incubated for 3 hours and read in an EnVision plate reader (Perkin Elmer) with Ex/Em 615/665. To determine the potency (IC50) and extent of MED1 repulsion, TR-FRET ratios were normalized to the average ratio of DMSO control wells (0%) and to the average minimum ratio for positive control compound (GW9662 (2-chloro-5-nitrobenzanilide); defined as 100%) in CDD Vault and analyzed using the Levenberg-Marquardt algorithm.

[2] = target: T2, PPARG/RXRA LBD heterodimer (Homo sapiens, UniProt P37231); experiment: PPARγ-NCOR1 recruitment assay (TR-FRET, biotinylated NCOR1 ID2 peptide); type: biochemical; conditions: 80 nM Rosiglitazone, 3 hours, read-out: PPARG-NCOR recruitment assay EC50
T2 construct: His-TEV-Q203-Y477; Uniprot ID P37231-2; made in house; host or cells: E. coli
Protocol: PPARγ-NCOR1 Recruitment Assay:
Compound potency (EC50) and maximal extent of NCOR1 recruitment to PPARG were assessed a TR-FRET binding assay measuring association of a biotinylated NCOR1 ID2 peptide (Biotin-[…]-amide) to PPARG/RXRA LBD heterodimer. Specifically, a 20 microliters of TR-FRET master mix consisting of 2 nM WT PPARG LBD (E. coli expressed, His-TEV-Q203-Y477; Uniprot ID P37231-2), 2 nM WT RXRA LBD or mutant S427F RXRA LBD (E. coli expressed, Flag-TEV-E228-T462; […]. Mixtures were incubated for 3 hours and read in an EnVision plate reader (Perkin Elmer) with Ex/Em 615/665. To determine the potency (EC50) and extent of NCOR1 recruitment, TR-FRET ratios were normalized to the average ratio of DMSO control wells (0%) and to the average maximum ratio for positive control compound (T0070907 (2-chloro-5-nitro-N-4-pyridinyl-benzamide); defined as 100%) in CDD Vault and analyzed using the Levenberg-Marquardt algorithm.
T2 sequence (O75376 2251-2273 partner, one chain of several): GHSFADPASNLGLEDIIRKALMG

[3] = test system: ANGPTL4, a PPARG target gene, in HT1197 (RXRA S427F mutation) cells; experiment: Bladder cancer pharmacodynamic assay, HT1197 cell assay (qPCR of ANGPTL4); type: cell-based; conditions: Homo sapiens, 24 hours, 100 nM compound, relative to DMSO control
Protocol: Bladder Cancer Pharmacodynamic Assay
5637 (PPARG amplified) and HT1197 (RXRA S427F mutation) cells were used for assessment of modulation of PPARG target genes using quantitative PCR. Cells were treated for 24 hours with PPARG inverse agonists prior to analysis of FABP4 (IDT, Cat: Hs.PT 58.20106818) and ANGPTL4 (IDT, Cat: Hs.PT 58.25480012) expression, with expression of the housekeeping gene TBP (IDT, Cat: Hs.PT 58v.39858774) used to normalize expression across samples. Quantitative PCR was performed using an ABI QuantStudio 7 Flex Reaction system. Data were analyzed and reported relative to DMSO control using the comparative Ct method (ΔΔCt).

| Compound | EC50 [1] [nM] | EC50 [2] [nM] | inhibition at 0.1 µM [3] [%] |
| --- | --- | --- | --- |
| CS(=O)(=O)C1CN(c2c(F)cc3[nH]c(-c4cc(C#N)ccc4Cl)cc(=O)c3c2F)C1 [Example 101, 4-chloro-3-(5,7-difluoro-6-(3-(methylsulfonyl)azetidin-1-yl)-4-oxo-1,4-dihydroquinolin-2-yl)benzonitrile] | 1000 to 10000 | 1000 to 10000 | 52 |
| N#Cc1ccc(Cl)c(-c2cc(=O)c3c(F)c(-c4cnc(C(F)(F)F)nc4)c(F)cc3[nH]2)c1 [Example 50, 4-chloro-3-(5,7-difluoro-4-oxo-6-(2-(trifluoromethyl)pyrimidin-5-yl)-1,4-dihydroquinolin-2-yl)benzonitrile] | 100 to 1000 | 100 to 1000 | 80 |
| CN(C)C(=O)[C@@H]1CCN(c2c(F)cc3[nH]c(-c4cc(C#N)ccc4Cl)cc(=O)c3c2F)C1 [Example 116, (R)-1-(2-(2-chloro-5-cyanophenyl)-5,7-difluoro-4-oxo-1,4-dihydroquinolin-6-yl)-N,N-dimethylpyrrolidine-3-carboxamide] | 1000 to 10000 | 100 to 1000 | 84 |
| Cc1cn(-c2c(F)cc3[nH]c(-c4cc(C#N)ccc4Cl)cc(=O)c3c2F)cn1 [Example 30, 4-chloro-3-(5,7-difluoro-6-(4-methyl-1H-imidazol-1-yl)-4-oxo-1,4-dihydroquinolin-2-yl)benzonitrile] | 100 to 1000 | 100 to 1000 | 39 |
| CN(C)[C@H]1CCN(c2c(F)cc3[nH]c(-c4cc(C#N)ccc4Cl)cc(=O)c3c2F)C1 [Example 108, (S)-4-chloro-3-(6-(3-(dimethylamino)pyrrolidin-1-yl)-5,7-difluoro-4-oxo-1,4-dihydroquinolin-2-yl)benzonitrile] | 1000 to 10000 | 1000 to 10000 | 65 |
| N#Cc1ccc(Cl)c(-c2cc(=O)c3c(F)c(C(O)CO)c(F)cc3[nH]2)c1 (stereo not drawn) [Example 90, 4-chloro-3-(6-(1,2-dihydroxyethyl)-5,7-difluoro-4-oxo-1,4-dihdroquinolin-2-yl)benzonitrile] | > 10000 | 1000 to 10000 | 0 |
| N#Cc1ccc(Cl)c(-c2cc(=O)c3c(F)c(F)c(F)cc3[nH]2)c1 [Example 17, 4-chloro-3-(5,6,7-trifluoro-4-oxo-1,4-dihydroquinolin-2-yl)benzonitrile] | 1000 to 10000 | 1000 to 10000 | 66 |
| CN1CCN(c2c(F)cc3[nH]c(-c4cc(C#N)ccc4Cl)cc(=O)c3c2F)CC1=O [Example 111, 4-chloro-3-(5,7-difluoro-6-(4-methyl-3-oxopiperazin-1-yl)-4-oxo-1,4-dihydroquinolin-2-yl)benzonitrile] | 1000 to 10000 | 1000 to 10000 | 43 |
| COCc1c(F)cc2[nH]c(-c3cc(C#N)ccc3Cl)cc(=O)c2c1F [Example 57, 4-chloro-3-(5,7-difluoro-6-(methoxymethyl)-4-oxo-1,4-dihydroquinolin-2-yl)benzonitrile] | 100 to 1000 | 100 to 1000 | 87 |
| N#Cc1ccc(Cl)c(-c2cc(=O)c3c(F)c(C4=CCNCC4)c(F)cc3[nH]2)c1 [Example 93, 4-chloro-3-(5,7-difluoro-4-oxo-6-(1,2,3,6-tetrahydropyridin-4-yl)-14-dihydroquinolin-2-yl)benzonitrile] | 1000 to 10000 | 1000 to 10000 | 48 |
| N#Cc1ccc(Cl)c(-c2cc(=O)c3ccccc3[nH]2)c1 [Example 13, 4-chloro-3-(4-oxo-1,4-dihydroquinolin-2-yl)benzonitrile] | 1000 to 10000 | 1000 to 10000 | 17 |
| N#Cc1ccc(Cl)c(-c2cc(=O)c3c(F)c(-c4ccn(CC(O)CO)n4)c(F)cc3[nH]2)c1 (stereo not drawn) [Example 92, 4-chloro-3-(6-(1-(2,3-dihydroxypropyl)-1H-pyrazol-3-yl)-5,7-difluoro-4-oxo-1,4-dihydroquinolin-2-yl)benzonitrile] | 100 to 1000 | 100 to 1000 | 24 |

Now from value to compound, other results behind:

| EC50 [1] [nM] | EC50 [2] [nM] | Compound | inhibition at 0.1 µM [3] [%] |
| --- | --- | --- | --- |
| 100 to 1000 | 100 to 1000 | Cc1nc(-c2c(F)cc3[nH]c(-c4cc(C#N)ccc4Cl)cc(=O)c3c2F)c[nH]1 [Example 65, 4-chloro-3-(5,7-difluoro-6-(2-methyl-1H-imidazol-4-yl)-4-oxo-1,4-dihydroquinolin-2-yl)benzonitrile] | 44 |
| 100 to 1000 | 100 to 1000 | N#Cc1ccc(Cl)c(-c2cc(=O)c3c(F)c(-c4cccc(C(=O)O)c4)c(F)cc3[nH]2)c1 [Example 74, 3-(2-(2-chloro-5-cyanophenyl)-5,7-difluoro-4-oxo-1,4-dihydroquinolin-6-yl)benzoic acid] | 12 |
| 100 to 1000 | 100 to 1000 | N#Cc1ccc(Cl)c(-c2cc(=O)c3c(F)c(-c4ccc(CO)nc4)c(F)cc3[nH]2)c1 [Example 64, 4-chloro-3-(5,7-difluoro-6-(6-(hydroxymethyl)pyridin-3-yl)-4-oxo-1,4-dihydroquinolin-2-yl)benzonitrile] | 59 |
| 1000 to 10000 | 1000 to 10000 | CC(C)(O)Cn1cc(-c2c(F)cc3[nH]c(-c4cc(C#N)ccc4Cl)cc(=O)c3c2F)cn1 [Example 48, 4-chloro-3-(5,7-difluoro-6-(1-(2-hydroxy-2-methylpropyl)-1H-pyrazol-4-yl)-4-oxo-1,4-dihydroquinolin-2-yl)benzonitrile] | 47 |
| 100 to 1000 | 100 to 1000 | N#Cc1ccc(-c2c(F)cc3[nH]c(-c4cc(C#N)ccc4Cl)cc(=O)c3c2F)cc1 [Example 35, 4-chloro-3-(6-(4-cyanophenyl)-5,7-difluoro-4-oxo-1,4-dihydroquinolin-2-yl)benzonitrile] | 54 |
| 100 to 1000 | 100 to 1000 | N#Cc1ccc(Cl)c(-c2cc(=O)c3c(F)c(-c4ccc(C(F)F)cn4)c(F)cc3[nH]2)c1 [Example 61, 4-chloro-3-(6-(5-(difluoromethyl)pyridin-2-yl)-5,7-difluoro-4-oxo-1,4-dihydroquinolin-2-yl)benzonitrile] | 70 |
| 100 to 1000 | 100 to 1000 | N#Cc1ccc(Cl)c(-c2cc(=O)c3c(F)c(-c4ccncc4)c(F)cc3[nH]2)c1 [Example 23, 4-chloro-3-(5,7-difluoro-4-oxo-6-(pyridin-4-yl)-1,4-dihydroquinolin-2-yl)benzonitrile] | 55 |
| 100 to 1000 | 100 to 1000 | N#Cc1ccc(Cl)c(-c2cc(=O)c3c(F)c(-c4cnn(C(F)(F)F)c4)c(F)cc3[nH]2)c1 [Example 58, 4-chloro-3-(5,7-difluoro-4-oxo-6-(1-(trifluoromethyl)-1H-pyrazol-4-yl)-1,4-dihydroquinolin-2-yl)benzonitrile] | 88 |
| 100 to 1000 | 100 to 1000 | N#Cc1ccc(Cl)c(-c2cc(=O)c3c(F)c(-c4ccc(C(F)(F)F)nc4)c(F)cc3[nH]2)c1 [Example 37, 4-chloro-3-(5,7-difluoro-4-oxo-6-(6-(trifluoromethyl)pyridin-3-yl)-1,4-dihydroquinolin-2-yl)benzonitrile] | 87 |

— patent publication US20240166624A1, “PPARG INVERSE AGONISTS AND USES THEREOF” (Flare Therapeutics Inc., priority 2021, published 2024)
